Data reported in patent US5084455A, “Novel indole carboxamides” (Roussel Uclaf, priority 1985, dated 1992).
Counter-ions that a name gives are not always drawn. Like-named read-outs stand apart in the source and are kept apart here.

What was measured:
mice = test: Study of the acute toxicity; format: in vivo; conditions: oral
Description: The lethal doses LD50 of the different compounds tested were evaluated after administration orally to mice. The maximum dose not causing any mortality in 8 days was called the LD0 and the following results were obtained.

[1] = test system: disturbances of the cardiac rhythm; test: Anti-arrhythmic action in the rat (aconitine perfusion); format: in vivo, male rats
Description: Male rats weighing 300-350 g were anesthetized intra-peritoneally with 1.20 g/kg of urethane, then tracheotomized and submitted to artificial respiration (40-50 breaths of 3 ml/minute). Needles were implanted subcutaneously so as to record the electro-cardiogram of the rats on the DII derivation signal. The products under test were administered intravenously or orally.
Five minutes after the administration of the product intravenously or 1 hour after administration orally, the jugular vein of the rats was perfused with 10 μg/minute from 0.2 ml of a solution of aconitine, and the time of appearance of disturbances of the cardiac rhythm was noted, (10 μg of aconitine corresponding to a perfusion of 0.2 ml of solution). The results are expressed as a percentage of the extension of the time of appearance of the disturbances of the cardiac rhythm as compared with controls, and as a function of the dose of the product under test.

Rat caudal arteries = test: Test of calcium-antagonistic activity in vitro (K+ depolarized caudal arteries); format: cell-based; conditions: 100 mM K+, 37° C., read-out: IC50, inhibition of the contraction due to K+ ions
Description: Calcium chloride was added in a volume of 250 μl to obtain a series of increasing concentrations of Ca^2+ ions ranging from 0.1 to 3.0 mM. The contractions of the arteries were recorded and a control series were thus established. The operation was repeated with the series of CA^2+ ions every 15 minutes and the preparation was washed four times after each series. When a stable response was obtained, the operation with the series of CA^2+ ions was performed in the presence of different concentrations of the test product, until a stable response was obtained.
The contractions of the arteries depend on the entry of Ca^2+ ions into the cells of the smooth muscles, and were caused by the depolarization of the smooth muscle by the K^+ ions and by the action of the noradrenaline released at presynaptic level. By starting the operation again with arteries denervated by the action of 6-OH-dopamine, the specific action due to noradrenaline was eliminated.

[2] = iv, read-out: Percentage extension of the time of appearance of disturbances of the cardiac rhythm
[3] = po, read-out: Percentage extension of the time of appearance of disturbances of the cardiac rhythm
[4] = read-out: Percentage of prolongation in the time
[5] = iv, read-out: Percentage of prolongation in the time

## CC(C)(C)NCC(O)COc1ccccc1NC(=O)c1cccc2[nH]ccc12 (stereo not drawn) [Example 1, N-[2-[3-[(1,1-dimethylethyl)amino]-2-hydroxypropoxy]-phenyl]-1H-indol-4-carboxyamide]
mice
  LD0 (maximum dose not causing any mortality in 8 days): 80 mg/kg
[1]; [2]
  change in vivo at 0.25 mg/kg: 31%
  change in vivo at 0.5 mg/kg: 41%
  change in vivo at 1 mg/kg: 110%

## CC(C)(C)NCCOc1ccccc1NC(=O)c1cccc2[nH]ccc12 [Example 2, N-[2-[2-[(1,1-dimethylethyl)amino]ethoxy]phenyl]-1H-indol-4-carboxamide]
mice
  LD0 (maximum dose not causing any mortality in 8 days): 80 mg/kg
[1]; [2]
  change in vivo at 1 mg/kg: 6%
  change in vivo at 2.5 mg/kg: 57%

## CC(C)(C)NCCCOc1ccccc1NC(=O)c1cccc2[nH]ccc12 [Example 3, N-[2-[3-[(1,1-dimethylethyl)amino]propoxy]phenyl]-1H-indol-4-carboxamide hydrochloride]
[1]; [2]
  change in vivo at 2.5 mg/kg: 68%

## CC(C)(C)NCC(O)COc1ccccc1C(=O)Nc1cccc2[nH]ccc12 (stereo not drawn) [Example 4, 2-[3-[(1,1-dimethylethyl)amino]-2-hydroxypropoxy]-N-(1H-indol-4-yl)benzamide]
mice
  LD0 (maximum dose not causing any mortality in 8 days): > 400 mg/kg
[1]; [2]
  change in vivo at 0.5 mg/kg: 17%
  change in vivo at 1 mg/kg: 38%
  change in vivo at 2.5 mg/kg: 124%
[1]; [3]
  change in vivo at 5 mg/kg: 7%
  change in vivo at 10 mg/kg: 46%
  change in vivo at 25 mg/kg: 81%

## CC(C)(C)NCCOc1ccccc1C(=O)Nc1cccc2[nH]ccc12.Cl [Example 5, 2-[2-[(1,1-dimethylethyl)amino]ethoxy]-N-(1H-indol-4-yl)-benzamide hydrochloride]
mice
  LD0 (maximum dose not causing any mortality in 8 days): 60 mg/kg
[1]; [2]
  change in vivo at 0.25 mg/kg: 9%
  change in vivo at 0.5 mg/kg: 36%
  change in vivo at 1 mg/kg: 33%
  change in vivo at 2.5 mg/kg: 61%
[1]; [3]
  change in vivo at 2.5 mg/kg: 22%
  change in vivo at 5 mg/kg: 32%
  change in vivo at 10 mg/kg: 59%

## CC(C)(C)NCCCOc1ccccc1C(=O)Nc1cccc2[nH]ccc12 [Example 6, 2-[3-[(1,1-dimethylethyl)amino]propoxy]-N-(1H-indol-4-yl)benzamide]
mice
  LD0 (maximum dose not causing any mortality in 8 days): 200 mg/kg
[1]; [2]
  change in vivo at 1 mg/kg: 23%
  change in vivo at 2.5 mg/kg: 41%
[1]; [3]
  change in vivo at 2.5 mg/kg: 29%

## CC(C)N(CCOc1ccccc1C(=O)Nc1cccc2[nH]ccc12)C(C)C [Example 12, 2-[2-[bis(1-methylethyl)-amino]ethoxy-]N-(1H-indol-4-yl) benzamide]
mice
  LD0 (maximum dose not causing any mortality in 8 days): > 400 mg/kg

## CC(C)N(CC(O)COc1ccccc1C(=O)Nc1cccc2[nH]ccc12)C(C)C (stereo not drawn) [Example 15]
mice
  LD0 (maximum dose not causing any mortality in 8 days): ≥ 400 mg/kg
[1]; [2]
  change in vivo at 2.5 mg/kg: 25.5%
  change in vivo at 5 mg/kg: 56%

## CCC(C)(C)NCCCOc1ccccc1C(=O)Nc1cccc2[nH]ccc12 [Example 30, 2-[3-[(1,1-dimethylpropyl)amino]-propoxy]-N-(1H-indol-4-yl)benzamide]
mice
  LD0 (maximum dose not causing any mortality in 8 days): 80 mg/kg
[1]; [2]
  change in vivo at 2.5 mg/kg: 38%
  change in vivo at 5 mg/kg: 99%
  change in vivo at 10 mg/kg: 147%
Rat caudal arteries
  IC50: 8 µM

## O=C(Nc1cccc2[nH]ccc12)c1ccccc1OCCCNC1CCCCC1 [Example 31, 2-[3-(Cyclohexylamino)propoxy]-N-(1-H-indol-4-yl)benzamide]
[1]; [2]
  change in vivo at 1 mg/kg: 24%
  change in vivo at 2.5 mg/kg: 34%
  change in vivo at 5 mg/kg: 83%
Rat caudal arteries
  IC50: 1.8 µM

## O=C(Nc1cccc2[nH]ccc12)c1ccccc1OCCCNCC1CCCCC1 [Example 32, 2-[3-[Cyclohexylmethylamino]-propoxy)-N-(1H-indol-4-yl)benzamide]
mice
  LD0 (maximum dose not causing any mortality in 8 days): 100 mg/kg
[1]; [2]
  change in vivo at 1 mg/kg: 43%
  change in vivo at 2.5 mg/kg: 71%
  change in vivo at 5 mg/kg: 97%
  change in vivo at 6.5 mg/kg: 28%
Rat caudal arteries
  IC50: 3.9 µM

## CC(C)(C)NCCCCOc1ccccc1C(=O)Nc1cccc2[nH]ccc12 [Example 33, 2[4-[1,1-Dimethylethylamino]butoxy]-N-(1H-indol-4-yl)benzamide]
mice
  LD0 (maximum dose not causing any mortality in 8 days): > 400 mg/kg
[1]; [4]
  change in vivo at 5 mg/kg: 54%
  change in vivo at 10 mg/kg: 99%
Rat caudal arteries
  IC50: 6.3 µM

## C#CC(C)(C)NCC(O)COc1ccccc1C(=O)Nc1cccc2[nH]ccc12 (stereo not drawn) [Example 35, 2-[3-[1,1-Dimethyl-2-propynylamino]-2-hydroxypropoxy]-N-(1H-indol-4-yl) benzamide]
Rat caudal arteries
  IC50: 9 µM

## CC(C)(C)CC(C)(C)NCC(O)COc1ccccc1C(=O)Nc1cccc2[nH]ccc12 (stereo not drawn) [Example 36, 2-[2-Hydroxy-3-[1,1,3,3-tetramethylbutyl-amino]propoxy]-N-(1H-indol-4-yl)benzamide]
[1]; [4]
  change in vivo at 1 mg/kg: 25%
  change in vivo at 2.5 mg/kg: 69%
Rat caudal arteries
  IC50: 0.44 µM

## CC(C)(CO)NCC(O)COc1ccccc1C(=O)Nc1cccc2[nH]ccc12 (stereo not drawn) [Example 37, 2-[3-[1,1-Dimethyl-2-hydroxyethylamino]-2-hydroxypropoxy]-N-(1H-indol-4-yl)benzamide]
[1]; [4]
  change in vivo at 1 mg/kg: 47%
  change in vivo at 5 mg/kg: 116%

## CCCNCCCOc1ccccc1C(=O)Nc1cccc2[nH]ccc12 [Example 38, N-(1H-Indol-4-yl)-2-[3-(propylamino)propoxy]-benzamide]
[1]; [4]
  change in vivo at 2.5 mg/kg: 42%
  change in vivo at 5 mg/kg: 76%
  change in vivo at 10 mg/kg: 173%

## CC(C)(CO)NCCCOc1ccccc1C(=O)Nc1cccc2[nH]ccc12 [Example 40, 2-[3-[1,1-dimethyl-2-hydroxyethylamino]-propoxy]-N-(1H-indol-4-yl)benzamide]
[1]; [4]
  change in vivo at 1 mg/kg: 21%
  change in vivo at 2.5 mg/kg: 50%
Rat caudal arteries
  IC50: 8.4 µM

## CC(C)NCCCOc1ccccc1NC(=O)c1cccc2[nH]ccc12 [Example 41, N-[2-[3-[Isopropylamino]propoxy]phenyl]-1H-indole-4-carboxamide]
[1]; [4]
  change in vivo at 1 mg/kg: 34%
  change in vivo at 2.5 mg/kg: 57%
  change in vivo at 5 mg/kg: 156%

## O=C(Nc1ccccc1OCCCNC1CCCC1)c1cccc2[nH]ccc12 [Example 42, N-[2-[3-(Cyclopentylamino)propoxy]phenyl]-1H-indol-4-carboxamide]
[1]; [4]
  change in vivo at 1 mg/kg: 29%
  change in vivo at 2.5 mg/kg: 86%

## O=C(Nc1ccccc1OCCCNC1CCCCC1)c1cccc2[nH]ccc12 [Example 43, N-[2-[3-(Cyclohexylamino)propoxy]phenyl]-1H-indole-4-carboxamide]
[1]; [4]
  change in vivo at 1 mg/kg: 49%
  change in vivo at 2.5 mg/kg: 83%

## CCC(C)(C)NCCCOc1ccccc1NC(=O)c1cccc2[nH]ccc12 [Example 44, N-[2-[3-[1,1-Dimethylpropylamino]propoxy]phenyl]-1H-indole-4-carboxamide]
mice
  LD0 (maximum dose not causing any mortality in 8 days): 200 mg/kg
[1]; [4]
  change in vivo at 1 mg/kg: 50%
  change in vivo at 2.5 mg/kg: 90%
  change in vivo at 5 mg/kg: 167%

## COc1ccc(CCNCCCOc2ccccc2NC(=O)c2cccc3[nH]ccc23)cc1OC [Example 45, N-[2-[3-[[2-(3,4-dimethoxyphenyl)ethyl]-amino]propoxy]phenyl]-1H-indole-4-carboxamide]
[1]; [4]
  change in vivo at 2.5 mg/kg: 60%
  change in vivo at 5 mg/kg: 142%
  change in vivo at 10 mg/kg: 193%

## O=C(Nc1cccc2[nH]ccc12)c1ccccc1OCC(O)CN1CCN(C(c2ccccc2)c2ccccc2)CC1 (stereo not drawn) [Example 46, 2-[2-Hydroxy-3-[4-(diphenylmethyl)-1-piperazinyl]propoxy]-N-(1H-indol-4-yl)benzamide]
mice
  LD0 (maximum dose not causing any mortality in 8 days): 400 mg/kg
[1]; [4]
  change in vivo at 2.5 mg/kg: 67%
  change in vivo at 5 mg/kg: 127%
  change in vivo at 10 mg/kg: 203%
Rat caudal arteries
  IC50: 0.25 µM

## COc1cc(CCN2CCN(CCCCOc3ccccc3C(=O)Nc3cccc4[nH]ccc34)CC2)cc(OC)c1OC [Example 47, N-(1H-Indol-4-yl)-2-[4-[4-[2-(3,4,5-trimethoxyphenyl)ethyl]-1-piperazinyl]butoxy]benzamide]
[1]; [4]
  change in vivo at 5 mg/kg: 44%
  change in vivo at 10 mg/kg: 67%
Rat caudal arteries
  IC50: 2.8 µM

## Cn1ccc2c(NC(=O)c3ccccc3OCC(O)CN3CCN(C(c4ccccc4)c4ccccc4)CC3)cccc21 (stereo not drawn) [Example 49]
Rat caudal arteries
  IC50: 3 µM

## CC(C)(C)NCC(O)COc1ccc([N+](=O)[O-])cc1C(=O)Nc1cccc2[nH]ccc12 (stereo not drawn) [Example 50]
mice
  LD0 (maximum dose not causing any mortality in 8 days): 200 mg/kg
[1]; [5]
  change in vivo at 0.5 mg/kg: 17%
  change in vivo at 1 mg/kg: 39%
  change in vivo at 2.5 mg/kg: 77%

## COc1ccc(C(=O)Nc2cccc3[nH]ccc23)c(OCC(O)CNC(C)(C)C)c1 (stereo not drawn) [Example 53, 2-[3-(1,1-dimethylethyl)-amine]-2-hydroxy-propoxy-N-(1H-indol-4-yl)-4-methoxy-benzamide]
[1]; [5]
  change in vivo at 1 mg/kg: 10%
  change in vivo at 2.5 mg/kg: 38%
Rat caudal arteries
  IC50: 8 µM

## CC(C)(C)NCC(O)COc1ccc(Cl)cc1C(=O)Nc1cccc2[nH]ccc12 (stereo not drawn) [Example 54, 5-Chloro-2-[3-(1,1-dimethylethyl)-amino]-2-hydroxy-propoxy-N-(1H-indol-4-yl)-benzamide]
Rat caudal arteries
  IC50: 5.4 µM
